Laboratory results taken from ChEMBL document CHEMBL5316290, “Targeted Protein Degradation Induced by HEMTACs Based on HSP90” (J Med Chem, 2023).
The source made the active and inactive calls. No cut-off for these calls is given here.

Legend:
[1] = target: T1, HSP90/Cyclin-dependent kinase 6 (Mus musculus) (UniProt P07901+Q64261+P11499); assay: HEMTAC activity at HSP90/CDK6 in mouse B16-F10 cells assessed as induction of […] degradation at 0.5 uM measured after 12 hrs by Western blot analysis; type: cell-based
B16-F10 [2] = assay: Induction of cell cycle arrest in mouse B16-F10 cells assessed as accumulation of cells at G2 phase at 250 nM incubated for 24 hrs by RNase/PI staining based flow cytometry analysis (reference value: 16.13%); type: functional
B16-F10 [3] = assay: Induction of cell cycle arrest in mouse B16-F10 cells assessed as accumulation of cells at S phase at 125 nM incubated for 24 hrs by RNase/PI staining based flow cytometry analysis (reference value: 12.45%); type: functional
HFF-1 = assay: Cytotoxicity against human HFF-1 cells assessed as reduction of cell viability incubated for 72 hrs by CCK-8 assay; type: toxicity, cell-based; conditions: hff-1, 72 h
[4] = target: T1, HSP90/Cyclin-dependent kinase 6 (Mus musculus); assay: HEMTAC activity at HSP90/CDK6 in mouse B16-F10 cells assessed as induction of CDK6 degradation at 0.1 uM incubated for 24 hrs in presence of palbociclib by Western blot analysis; type: cell-based
B16-F10 [5] = assay: Anticancer activity against mouse B16-F10 cells implanted in C57BL/6J mouse assessed as reduction in tumor growth at 20 to 40 mg/kg, ip administered once daily for 2 weeks and measured every 2 days by vernier caliper method; type: functional, organism-based; conditions: dose 20-40 mg/kg
[6] = Toxicity in C57BL/6J mouse implanted with mouse B16-F10 cells assessed as morphological changes in lung at 20 mg/kg, ip administered once daily for 2 weeks and measured every 2 days by H and E staining based analysis; type: organism-based; conditions: in vivo, 336 h
[7] = target: Heat shock protein HSP 90-alpha (Homo sapiens, UniProt P07900); assay: Binding affinity to CM5 sensor chip immobilized human HSP90alpha assessed as dissociation constant by SPR analysis
[8] = target: T1, HSP90/Cyclin-dependent kinase 6 (Mus musculus); assay: HEMTAC activity at HSP90/CDK6 in mouse B16-F10 cells assessed as reduction in CDK6 protein level at 0.5 uM incubated for 24 hrs by global proteomics analysis; type: cell-based
[9] = target: HSP90/Cyclin-dependent kinase 4 (Mus musculus, UniProt P07901+P11499+P30285); assay: HEMTAC activity at HSP90/CDK4 in mouse B16-F10 cells assessed as induction of CDK4 degradation incubated for 24 hrs by Western blot analysis; type: cell-based
B16-F10 [10] = assay: Binding affinity to HSP90/CDK4 in mouse B16-F10 assessed as ternary complex formation at 5 uM incubated for 6 hrs by co-immunoprecipitation assay; type: cell-based
[11] = Toxicity in C57BL/6J mouse implanted with mouse B16-F10 cells at 20 to 40 mg/kg, ip administered once daily for 2 weeks and measured every 2 days; type: organism-based; conditions: in vivo, 336 h, dose 20-40 mg/kg
[12] = target: HSP90/Cyclin-dependent kinase 4 (Mus musculus) (UniProt P30285+P07901+P11499); assay: HEMTAC activity at HSP90/CDK4 in mouse B16-F10 cells assessed as induction of CDK4 degradation by measuring maximal degradation incubated for 24 hrs by Western blot analysis relative to control; type: cell-based

## COc1c(C)cnc(Cn2cc(C#CCCn3cc(CNC(=O)CN4CCN(c5ccc(Nc6ncc7c(C)c(C(C)=O)c(=O)n(C8CCCC8)c7n6)nc5)CC4)nn3)c3c(Cl)nc(N)nc32)c1C
[1]
  Activity: Active
B16-F10 [2]
  Activity: 16.12%
B16-F10 [3]
  Activity: 7.58%
HFF-1
  Activity: Non-Toxic
[4]
  Activity: inactive
B16-F10 [5]
  Activity: Active
[6]
  Activity: Non-Toxic
[7]
  Kd: 357 nM
[8]
  Activity: Active
[9]
  EC50: 26 nM
B16-F10 [10]
  Activity: Active
[11]
  Activity: Non-Toxic
[12]
  Emax: 88%
